# Data: US10294246B2, “Substituted boronic acids and boronate esters as immunoproteasome inhibitors” (MERCK PATENT GMBH, priority 2014, dated 2019)
# Columns and labels:
# [1] = target: human immunoproteasome (LMP7) (Homo sapiens (Human), UniProt P28062); assay: Determination of LMP7 activity (fluorescence intensity assay, Suc-LLVY-AMC); type: biochemical; conditions: for Selectivity LMP7 vs Beta5: LMP7 versus Beta5; for IC50: purified human immunoproteasome 0.25 nM, Suc-LLVY-AMC 40 μM
# Method in brief: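 0.25 nM purified human immunoproteasome preincubated 20 min at 25 °C with serially diluted compounds in 50 mM Tris pH 7.4, 0.03% SDS, 1 mM EDTA, 1% DMSO. Reaction started with 40 μM Suc-LLVY-AMC, run 60 min at 37 °C. Fluorescence read at ex 350/em 450 nm.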
# [2] = target: human constitutive proteasome (Beta5) (Homo sapiens (Human), UniProt P28074); assay: Determination of Beta5 activity (fluorescence intensity assay, Suc-LLVY-AMC); type: biochemical; conditions: purified human constitutive proteasome 1.25 nM, Suc-LLVY-AMC 40 μM
# Method in brief: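 Purified constitutive proteasome (1.25 nM) was preincubated with compounds 20 min at 25 °C in 50 mM Tris pH 7.4, 0.03% SDS, 1 mM EDTA, 1% DMSO. Suc-LLVY-AMC (40 μM) was then added for 60 min at 37 °C. AMC fluorescence was read at ex 350/em 450 nm.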
Selectivity LMP7 vs Beta5 [1],IC50 [1],IC50 [2],Compound
+++++ (Selectivity ≥ 100),< 50 nM,500 to 5000 nM,"O=C(N[C@H](Cc1coc2ccccc12)B(O)O)[C@@H](CO)c1ccccc1 [Compound No. 62, [(1S)-2-(benzofuran-3-yl)-1-[[(2R)-3-hydroxy-2-phenyl-propanoyl]-amino]ethyl]boronic acid]"
++++ (70 ≤ Selectivity < 100),50 to 500 nM,> 5000 nM,"O=C(Cc1ccccc1)N[C@@H](Cc1cc2ccccc2o1)B(O)O [Compound No. 110, [(1R)-2-(benzofuran-2-yl)-1-[(2-phenylacetyl)amino]ethyl]boronic acid]"
+++++ (Selectivity ≥ 100),< 50 nM,500 to 5000 nM,"N#Cc1ccccc1CC(=O)N[C@@H](C[C@@H]1COc2ccccc21)B(O)O [Compound No. 105, [(1R)-1-[[2-(2-cyanophenyl)acetyl]amino]-2-[(3S)-2,3-dihydrobenzofuran-3-yl]ethyl]boronic acid]"
+++++ (Selectivity ≥ 100),< 50 nM,500 to 5000 nM,"CO[C@@H](C(=O)N[C@@H](Cc1coc2ccccc12)B(O)O)c1ccccc1 [Compound No. 34, [(1R)-2-(benzofuran-3-yl)-1-[[(2R)-2-methoxy-2-phenyl-acetyl]amino]-ethyl]boronic acid]"
+++ (50 ≤ Selectivity < 70),< 50 nM,50 to 500 nM,"COc1cccc(CC(=O)N[C@@H](Cc2coc3ccccc23)B(O)O)n1 [Compound No. 12, [(1R)-2-(benzofuran-3-yl)-1-[[2-(6-methoxy-2-pyridyl)acetyl]amino]-ethyl]boronic acid]"
+++++ (Selectivity ≥ 100),< 50 nM,500 to 5000 nM,"O=C(N[C@@H](Cc1coc2ccccc12)B(O)O)[C@H](CO)c1ccccc1 [Compound No. 57, [(1R)-2-(benzofuran-3-yl)-1-[[(2S)-3-hydroxy-2-phenyl-propanoyl]-amino]ethyl]boronic acid]"
+++++ (Selectivity ≥ 100),< 50 nM,500 to 5000 nM,"COCc1ccccc1CC(=O)N[C@@H](Cc1coc2ccccc12)B(O)O [Compound No. 48, [(1R)-2-(benzofuran-3-yl)-1-[[2-[2-(methoxymethyl)phenyl]acetyl]-amino]ethyl]boronic acid]"
++ (10 ≤ Selectivity < 50),< 50 nM,50 to 500 nM,"COc1ccc(OCCC(=O)N[C@@H](Cc2ccc(C)cc2)B(O)O)cc1 [Compound No. 5, [(1R)-1-[3-(4-methoxyphenoxy)propanoylamino]-2-(p-tolyl)ethyl]boronic acid]"
+++ (50 ≤ Selectivity < 70),50 to 500 nM,> 5000 nM,"O=C(Cc1ccccc1)N[C@@H](Cc1c(Cl)oc2ccccc12)B(O)O [Compound No. 73, [(1R)-2-(2-chlorobenzofuran-3-yl)-1-[(2-phenylacetyl)amino]ethyl]-boronic acid]"
++ (10 ≤ Selectivity < 50),< 50 nM,50 to 500 nM,"O=C(Cc1ncccn1)N[C@@H](Cc1coc2ccccc12)B(O)O [Compound No. 20, [(1R)-2-(benzofuran-3-yl)-1-[(2-pyrimidin-2-ylacetyl)amino]ethyl]-boronic acid]"
++ (10 ≤ Selectivity < 50),50 to 500 nM,500 to 5000 nM,"O=C(COc1ccccn1)N[C@@H](Cc1ccccc1)B(O)O [Compound No. 2, [(1R)-2-phenyl-1-[[2-(2-pyridyloxy)acetyl]amino]ethyl]boronic acid]"
+++++ (Selectivity ≥ 100),< 50 nM,500 to 5000 nM,"O=C(Cc1ccccc1)N[C@@H](Cc1coc2c(Cl)cccc12)B(O)O [Compound No. 85, [(1R)-2-(7-chlorobenzofuran-3-yl)-1-[(2-phenylacetyl)amino]ethyl]-boronic acid]"
+++ (50 ≤ Selectivity < 70),< 50 nM,500 to 5000 nM,"O=C(Cc1ccccc1OCCO)N[C@@H](Cc1coc2ccccc12)B(O)O [Compound No. 50, [(1R)-2-(benzofuran-3-yl)-1-[[2-[2-(2-hydroxyethoxy)phenyl]acetyl]-amino]ethyl]boronic acid]"
+++ (50 ≤ Selectivity < 70),< 50 nM,500 to 5000 nM,"C[C@@H](C(=O)N[C@@H](Cc1coc2ccccc12)B(O)O)c1ccccc1 [Compound No. 45, [(1R)-2-(benzofuran-3-yl)-1-[[(2R)-2-phenylpropanoyl]amino]ethyl]-boronic acid]"
+ (Selectivity < 10),500 to 5000 nM,> 5000 nM,"Cc1ccc(C[C@H](NC(=O)C2(c3ccccc3)CC2)B(O)O)c(C)c1 [Compound No. 36, [(1R)-2-(2,4-dimethylphenyl)-1-[(1-phenylcyclopropanecarbonyl)-amino]ethyl]boronic acid]"
++++ (70 ≤ Selectivity < 100),< 50 nM,500 to 5000 nM,"O=C(Cc1c(Cl)cccc1Cl)N[C@@H](Cc1coc2ccccc12)B(O)O [Compound No. 25, [(1R)-2-(benzofuran-3-yl)-1-[[2-(2,6-dichlorophenyl)acetyl]amino]-ethyl]boronic acid]"
+++++ (Selectivity ≥ 100),< 50 nM,500 to 5000 nM,"Cc1cccc2c1OCC2C[C@H](NC(=O)Cc1ccccc1)B(O)O (stereo partly drawn) [Compound No. 77, [(1R)-2-(7-methyl-2,3-dihydrobenzofuran-3-yl)-1-[(2-phenylacetyl)-amino]ethyl]boronic acid]"
++ (10 ≤ Selectivity < 50),500 to 5000 nM,> 5000 nM,"Cc1cccc2c1OC[C@@H]2C[C@H](NC(=O)Cc1ccccc1)B(O)O [Compound No. 127, [(1R)-2-[(3R)-7-methyl-2,3-dihydrobenzofuran-3-yl]-1-[(2-phenylacetyl)amino]ethyl]boronic acid]"
++ (10 ≤ Selectivity < 50),< 50 nM,500 to 5000 nM,"Cc1ccc(C[C@H](NC(=O)Cc2ccc(NC(=O)C(F)(F)F)cc2)B(O)O)c(C)c1 [Compound No. 53, [(1R)-2-(2,4-dimethylphenyl)-1-[[2-[4-[(2,2,2-trifluoroacetyl)amino]-phenyl]acetyl]amino]ethyl]boronic acid]"
++ (10 ≤ Selectivity < 50),< 50 nM,50 to 500 nM,"O=C(COc1cccnc1)N[C@@H](Cc1coc2ccccc12)B(O)O [Compound No. 11, [(1R)-2-(benzofuran-3-yl)-1-[[2-(3-pyridyloxy)acetyl]amino]ethyl]-boronic acid]"
+++++ (Selectivity ≥ 100),< 50 nM,50 to 500 nM,"COc1cccc2c(C[C@H](NC(=O)Cc3ccccc3)B(O)O)coc12 [Compound No. 92, [(1R)-2-(7-methoxybenzofuran-3-yl)-1-[(2-phenylacetyl)amino]ethyl]-boronic acid]"
+++++ (Selectivity ≥ 100),< 50 nM,500 to 5000 nM,"N#Cc1cccc(CC(=O)N[C@@H](Cc2coc3ccccc23)B(O)O)c1 [Compound No. 123, [(1R)-2-(benzofuran-3-yl)-1-[[2-(3-cyanophenyl)acetyl]amino]ethyl]-boronic acid]"
++++ (70 ≤ Selectivity < 100),50 to 500 nM,> 5000 nM,"Cc1ccc(C[C@H](NC(=O)Cc2ccc(NS(C)(=O)=O)cc2)B(O)O)c(C)c1 [Compound No. 46, [(1R)-2-(2,4-dimethylphenyl)-1-[[2-[4-(methanesulfonamido)phenyl]-acetyl]amino]ethyl]boronic acid]"
++++ (70 ≤ Selectivity < 100),< 50 nM,50 to 500 nM,"COc1ccc(CC(=O)N[C@@H](Cc2coc3ccccc23)B(O)O)cc1 [Compound No. 10, [(1R)-2-(benzofuran-3-yl)-1-[[2-(4-methoxyphenyl)acetyl]amino]ethyl]-boronic acid]"
+++ (50 ≤ Selectivity < 70),< 50 nM,50 to 500 nM,"O=C(Cc1ccc(N2CCCC2=O)cc1)N[C@@H](Cc1coc2ccccc12)B(O)O [Compound No. 64, [(1R)-2-(benzofuran-3-yl)-1-[[2-[4-(2-oxopyrrolidin-1-yl)phenyl]acetyl]-amino]ethyl]boronic acid]"
+++++ (Selectivity ≥ 100),< 50 nM,500 to 5000 nM,"Cc1cccc2c(C[C@H](NC(=O)[C@H](CO)c3ccccc3)B(O)O)coc12 [Compound No. 79, [(1R)-1-[[(2S)-3-hydroxy-2-phenyl-propanoyl]amino]-2-(7-methylbenzofuran-3-yl)ethyl]boronic acid]"
+++++ (Selectivity ≥ 100),< 50 nM,> 5000 nM,"Cc1cccc2c1OC[C@H]2C[C@H](NC(=O)Cc1ccccc1C#N)B(O)O [Compound No. 130, [(1R)-1-[[2-(2-cyanophenyl)acetyl]amino]-2-[(3S)-7-methyl-2,3-dihydrobenzofuran-3-yl]ethyl]boronic acid]"
+++++ (Selectivity ≥ 100),50 to 500 nM,> 5000 nM,"C[C@H](C(=O)N[C@@H](Cc1coc2ccccc12)B(O)O)c1ccccc1C(=O)N(C)C [Compound No. 96, [(1R)-2-(benzofuran-3-yl)-1-[[(2S)-2-[2-(dimethylcarbamoyl)phenyl]-propanoyl]amino]ethyl]boronic acid]"
